Laboratory results: paper PMC5462101 (Future medicinal chemistry, 2015)
Where “and” joins values, the source holds several entries; their conditions need not be identical. Identical values can stand only once.

How the values were obtained:
[1] = Competition with DMSO for hydroxyl radicals; conditions: compound at 100 µM, Fe3+/ascorbic acid, DMSO 33 mM
Method: Competition of the novel pteridine derivatives with dimethyl sulfoxide for hydroxyl radicals was measured. […] The majority of the derivatives were excellent scavengers of hydroxyl radicals with activity higher than the reference compound 6-hydroxy-2,5,7,8-tetramethylchroman-2-carboxylic acid (Trolox).
Competition of pteridine derivatives with DMSO for hydroxyl radicals
Hydroxyl radicals generated by the Fe^3+/ascorbic acid system were detected by determination of formaldehyde produced from the oxidation of DMSO, according to the procedure of Nash. The reaction mixture comprised ethylenediaminetetracetic acid (EDTA) (0.1 mM), Fe^3+ (167 μM), DMSO (33 mM) in phosphate buffer (50 mM, pH 7.4), ascorbic acid (10 mM) and the compound to be tested at 100 µM. After incubation at 37 °C for 30 min the mixture was quenched with aqueous trichloroacetic acid (17% w/v) (Table 2) and the percentage competition of the tested compounds with DMSO for hydroxyl radicals was determined (Table 2).

[2] = Inhibition of linoleic acid peroxidation (AAPH); conditions: linoleic acid peroxidation initiated by AAPH, 37 °C, pH 7.4
From the text: Azo compounds that generate free radicals through spontaneous thermal decomposition are useful for in vitro studies of free radical production. The water-soluble AAPH has been extensively used as a clean and controllable source of thermally produced alkylperoxyl free radicals. […] Evidently, the presence of 6,7-dimethyl groups on the pteridine ring greatly enhances protection against lipid peroxidation; the nature of the alkyl group and ring size on the 2-substituent has some, but much less, effect. […] The role of lipophilicity (as assessed from calculated clogP values; Table 1) is not clear, but substituent bulk plays a significant role.
Inhibition of linoleic acid peroxidation
Production of conjugated diene hydroperoxide by oxidation of linoleic acid in an aqueous dispersion was monitored at 234 nm. 2,2’-Azobis(2-amidinopropane) dihydrochloride (AAPH) was used as a free radical initiator. This assay was used to follow oxidative changes and to determine the inhibition of the peroxidation of sodium linoleate by each tested compound. A dispersion of sodium linoleate (16 mM, 10 μL) was added to the UV cuvette containing phosphate buffer (0.05 M, 0.93 mL) at pH 7.4 and kept in a thermostat at 37 °C. The oxidation reaction was initiated at 37 °C under air by the addition of AAPH solution (40 mM, 50 μL). Oxidation was carried out in the presence of aliquots (10 μL) of the tested compound. In the assay without antioxidant, lipid oxidation was measured in the presence of DMSO (10 μL). The rate of oxidation at 37 °C was monitored by recording the increase in absorption at 234 nm caused by conjugated diene hydroperoxide formation (Table 2).
IC50 determinations. OriginPro 8 was used to determine IC50 values from the sigmoidal line fitted to a graph of log[concentration] against the average percentage inhibition from two independent experiments, with at least 6 different concentrations. The SEM is the calculated standard error in the IC50 value of the fitted line.

[3] = system: carrageenin-induced rat paw edema; test: Inhibition of carrageenin-induced rat paw edema; assay type: in vivo, Fisher 344 rats
Method: The incipient pattern of this edema is characterized by the effects of histamine and 5-hydroxytryptamine. After 1 h, reduction of edema in the rat paw achieved by the pteridine 18f was appreciably greater than the reduction induced by the reference compound indomethacin, a nonselective COX-inhibitor and commonly used nonsteroidal anti-inflammatory drug. Thus, 18f and some related pteridines offer significant protection against reactive oxygen species produced in a model of colitis, probably on account of their properties as antioxidants and radical scavengers.
Fisher 344 rats (150-200 g) were housed in wire-mesh cages, given standard laboratory chow and tap water ad libitum and acclimatized for one week before experiments. Rats were randomly assigned to experimental groups. All in vivo experiments conform to the law for the protection of experimental animals (Republic of Greece) and are registered at the Veterinary Administration of the Republic of Greece in accordance with recognized guidelines on animal experimentation including Directive 2010/63/EU.
Inhibition of carrageenin-induced edema
Edema was induced in the right hind paw of Fisher 344 rats (150-200 g) by intradermal injection of aqueous carrageenin (0.1 mL, 2%). Pregnant females were excluded from the study, but both sexes were used. Each group comprised 6-15 rats which were bred and housed under standard conditions and received a diet of commercial food pellets and water ad libitum during maintenance but were entirely fasted during the experiment period. Each compound (0.01 mmol/kg body weight) was suspended in water to which had been added a few drops of Tween 80 and then the mixture was ground in a mortar prior to being administered intraperitoneally and simultaneously with the carrageenin injection. Rats were euthanized 1 h after injection, and the difference between the weight of the injected and non-injected paws was calculated for each animal. The change in paw weight was compared with that in control animals (treated with water) and the inhibition of the edema was expressed as a percentage (Table 4). […]

CN1CCN(c2nc(NCc3cccs3)c3nccnc3n2)CC1 [Compound 18f, 2-(4-methylpiperazin-1-yl)-N-(thiophen-2-ylmethyl)pteridin-4-amine]
Hydroxyl radicals scavenged (%) [1]: 96% | IC50 [2]: 100 ± 1.5 µM | Greater reduction of edema in rat paw than indomethacin ([3]; 0.01 mmol/kg, relative to indomethacin): 60% | Reduction of rat paw edema after 1 h (%) ([3]; rat, 0.01 mmol/kg intraperitoneally, 1 h, mean of two experiments): 41% and 41 ^† %
